The series in a line: Analysis of additives in the multi-layered plastic container before and after sterilization by irradiation. As to conditions: After irradiation - dose of 25 kGy. It counts as physicochemical. As to the method: A physico-chemical study of the outer layers made of polypropylene before and after irradiation at 25 kGy was performed.

The values below come from patent publication US8802209B2, “Multi-layered plastic polymeric container for the storage of pharmaceutical compositions” (Ceva Santé Animale, priority 2007, dated 2014).

The structures appear in SMILES notation.

As to `CC(C)(C)c1cc(CCC(=O)OCC(COC(=O)CCc2cc(C(C)(C)C)c(O)c(C(C)(C)C)c2)(COC(=O)CCc2cc(C(C)(C)C)c(O)c(C(C)(C)C)c2)COC(=O)CCc2cc(C(C)(C)C)c(O)c(C(C)(C)C)c2)cc(C(C)(C)C)c1O` [IRGANOX 1010, pentaerythrityl tetrakis(3-(3,5-di-tert-butyl-4-hydroxyphenyl)-propionate)], the “Quantity of additives in polypropylene (ppm)” value was “Not detected”. The entry for `CC(C)(C)c1cc(Cn2c(=O)n(Cc3cc(C(C)(C)C)c(O)c(C(C)(C)C)c3)c(=O)n(Cc3cc(C(C)(C)C)c(O)c(C(C)(C)C)c3)c2=O)cc(C(C)(C)C)c1O` [IRGANOX 3114, 1,3,5-tris(3,5-di-tert-butyl-4-hydroxybenzyl)-s-triazine-2,4,6(1H,3H,5H)-trione] is “Not detected”; for `CC(C)(C)c1ccc(OP(Oc2ccc(C(C)(C)C)cc2C(C)(C)C)Oc2ccc(C(C)(C)C)cc2C(C)(C)C)c(C(C)(C)C)c1` [IRGAPHOS 168, phosphite tris(2,4-bis(1,1-dimethylethyl)-phenyl)] it is “Not detected”.
